Measured values: patent publication US20240158430A1, “NOVEL COMPOUND OR SALT THEREOF, AND ANTITUMOR ACTIVATOR CONTAINING SAME AS ACTIVE INGREDIENT” (AKITA UNIVERSITY, priority 2021, published 2024)
pIC50: −log10 of the molar value. Where two headings read alike, the source gives them in different places.

Experiments:
[1] = tested on: pancreatic cancer cell line ASPC-1; test: Cell growth inhibitory activity, ASPC-1; format: cell-based; conditions: Homo sapiens, ASPC1; Table 7
Protocol: [The source words this procedure for another cell line and reports this cell line under the same test.] (§1) The cell growth inhibitory activity against a colorectal cancer cell line HCT116 was measured. As an index of cell growth inhibitory activity, a concentration at which cell growth was inhibited by 50% as compared with a control (IC50) was used. The method is as follows. HCT116 was added to a 6-well plate by 5×10^4, compounds having various concentrations were added after 24 hours, and the number of cells was counted after 72 hours of culture. As the control, DMSO was used in an amount equal to the amount added in accordance with the addition concentration of the highest-concentration compound. The number of cells at each concentration relative to the control was expressed as a percentage.
(§2) The method is as described above.

[2] = tested on: cutaneous T-cell lymphoma cell line HH; test: Cell growth inhibitory activity, HH; format: cell-based; conditions: T-cell; Table 10
Protocol: [The source words this procedure for another cell line and reports this cell line under the same test.] as §1, §2

[3] = tested on: gastric cancer cell line KATO III; test: Cell growth inhibitory activity, KATO III; format: cell-based; conditions: Homo sapiens, KATO III; Table 6; read-out: IC50 (μM) KATO III
Protocol: as §1, §2
(§3) The cell growth inhibitory activity (IC50) of each of curcumin, GO-Y199, and GO-Y206 against the colorectal cancer cell lines DLD-1 and HCT116 and the gastric cancer cell lines KATO III and H-111-TC was measured. The method is as described above.

[4] = tested on: cutaneous T-cell lymphoma cell line HUT78; test: Cell growth inhibitory activity, HUT78; format: cell-based; conditions: Homo sapiens, HuT78; Table 10
Protocol: [The source words this procedure for another cell line and reports this cell line under the same test.] as §1, §2

[5] = tested on: malignant pleural mesothelioma cell line NCI-H226; test: Cell growth inhibitory activity, NCI-H226; format: cell-based; conditions: Homo sapiens, NCI-H226; Table 8
Protocol: as §1, with “percentage. In Table 3, the turbidities of the compounds are also indicated.” for “percentage.”
(§4) GO-Y198, GO-Y199, and GO-Y200 against malignant pleural mesothelioma cell lines NCI-H226 and MSTO211H was measured. The method is as described above. For comparison, the IC50 of cisplatin (CDDP), a cytocidal anticancer agent, is also indicated.

[6] = tested on: gastric cancer cell line GCIY; test: Cell growth inhibitory activity, GCIY; format: cell-based; conditions: Homo sapiens, GCIY; Table 4; 72 hours
Protocol: [The source words this procedure for another cell line and reports this cell line under the same test.] as §1, §2

[7] = tested on: malignant pleural mesothelioma cell line MSTO211H; test: Cell growth inhibitory activity, MSTO211H; format: cell-based; conditions: Homo sapiens, MSTO-211H; Table 8
Protocol: as §1, with “percentage. In Table 3, the turbidities of the compounds are also indicated.” for “percentage.”
as §4

[8] = tested on: pancreatic cancer cell line Panc-1; test: Cell growth inhibitory activity, Panc-1; format: cell-based; conditions: Homo sapiens, PANC-1; Table 7
Protocol: [The source words this procedure for another cell line and reports this cell line under the same test.] as §1, §2

[9] = Turbidity measurement; format: physicochemical
Protocol: The turbidity of various compounds was measured. The method is as follows. […] Curcumin was cloudy while GO-Y199 was clear. The solubility was measured with a turbidimeter (WZB-170 Portable Turbidimeter available from REX). The turbidity of the compound was corrected for concentration.
Subsequently, GO-Y206 and curcumin were adjusted to final concentrations of 1.25 μM and 5.00 μM, respectively, and their turbidities were measured.

[10] = tested on: vascular endothelial cells HUVEC-R resistant to Ki8751; test: Angiogenesis inhibitory activity, HUVEC-R; format: cell-based; conditions: Endothelial cell; Table 11; number of cells after 72 hours
Protocol: HUVEC-R was cultured in the presence of each compound using an EGMTM-2 Bullet Kit (Takara Bio Inc., Otsu, Japan), and the number of cells was measured after 72 hours. In addition, IC50 was determined from the results.

[11] = tested on: malignant melanoma cell line G361; test: Cell growth inhibitory activity, G361; format: cell-based; conditions: Homo sapiens, G-361; Table 9
Protocol: [The source words this procedure for another cell line and reports this cell line under the same test.] as §1, §2

[12] = tested on: colorectal cancer cell line HCT116; test: Cell growth inhibitory activity, HCT116; format: cell-based; conditions: Homo sapiens
Protocol: as §1, §2, §3

[13] = tested on: gastric cancer cell line SH-10-TC; test: Cell growth inhibitory activity, SH-10-TC; format: cell-based; conditions: SH-10-TC; Table 4; 72 hours
Protocol: [The source words this procedure for another cell line and reports this cell line under the same test.] as §1, §2

[14] = tested on: gastric cancer cell line H-111-TC; test: Cell growth inhibitory activity, H-111-TC; format: cell-based; conditions: Table 6
Protocol: as §1, with “percentage. In Table 3, the turbidities of the compounds are also indicated.” for “percentage.”
The cell growth inhibitory activity (IC50) of each of curcumin, GO-Y199, and GO-Y206 against the colorectal cancer cell lines DLD-1 and HCT116 and the gastric cancer cell lines KATO III and H-111-TC was measured. The method is as described above. FIG. 8 indicates the results of cell growth inhibitory activity of these compounds against various cancer cell lines.

[15] = tested on: colorectal cancer cell line DLD-1; test: Cell growth inhibitory activity, DLD-1; format: cell-based; conditions: Homo sapiens, DLD-1
Protocol: as §1, §2, §3

## COc1cc(/C=C/C(=O)CC(=O)/C=C/c2ccc(O)c(OC)c2)ccc1O [curcumin, reference compound]
[1]
  IC50: 18.5 µM
[2]
  IC50: 18.1 µM
[3]
  IC50: 11 µM
[4]
  IC50: 9.01 µM
[5]
  IC50: 15.1 µM
[6]
  pIC50: 5.06
[7]
  IC50: 33.7 µM
[8]
  IC50: 29.2 µM
[9]; Table 1, average turbidity corrected for final concentration (1.7-170 μm, per compound)
  Turbidity/μm: 0.29 NTU/μM
[9]; Table 1, turbidity/μm relative to curcumin = 1
  Relative Value (turbidity): 1
[9]; Table 2, final conc. 1.25 μM
  Turbidity (NTU): 4.96 NTU
  Turbidity/μm: 3.968 NTU/μM
[9]; Table 2, final conc. 5.0 μM
  Turbidity (NTU): 29.0 NTU
  Turbidity/μm: 5.8 NTU/μM
[9]; Table 2, value in parentheses, relative to curcumin = 1.00
  Relative Value (turbidity): (1.00)
[9]; Table 3, relative to curcumin = 1
  Turbidity (Relative Value): 1
[9]; final concentration 50 μM in distilled water or DMEM with 10% fetal bovine serum, from DMSO
  appearance of solution: cloudy
[10]
  IC50: 11.9 µM
[11]
  IC50: 16.8 µM
[12]; HCT-116, read-out: IC50 HCT-116, Table 4, 72 hours
  pIC50: 4.80
[12]; HCT-116, Table 3, HCT116, cell count after 72 hours of culture vs DMSO control, read-out: IC50
  pIC50: 4.80
[12]; HCT-116, Table 6, read-out: IC50 (μM) HCT116
  IC50: 7.08 µM
[13]
  pIC50: 5.09
[14]
  IC50: > 50 µM
[15]; Table 4, 72 hours, read-out: IC50 DLD-1
  pIC50: 4.73
[15]; Table 6, read-out: IC50 (μM) DLD-1
  IC50: 44.8 µM
